The values below come from ChEMBL document CHEMBL1138166, “Synthesis and antimycobacterial activity of some alkyl [5-(nitroaryl)-1,3,4-thiadiazol-2-ylthio]propionates” (2006).

≈ marks a conversion by molar mass, not a printed value. Calls of active or inactive are those of the source. No cut-off for these calls is given here. Where only a bound is given, the exact number is not on record here.

In the assay the test system is Mycobacterium tuberculosis. In words: Antimycobacterial activity against Mycobacterium tuberculosis H37Rv by microplate alamar blue assay. The note with it: for MIC: Mycobacterium tuberculosis, H37Rv. The assay is classed as functional. On the technique in general: The colour change of resazurin is a common sign of viable cells or microbes.

`COC(=O)CCSc1nnc(-c2ccc([N+](=O)[O-])o2)s1`: the result was inactive, the Inhibition is 64% and the MIC is over 6.25 µg/mL.

As to `O=C(O)CCSc1nnc(-c2ccc([N+](=O)[O-])o2)s1`, the result was Active, the Inhibition is on record as 95% and the MIC amounted to 6.25 µg/mL (≈ 20.7 µM).

In the case of `CCOC(=O)C(C)S(=O)(=O)c1nnc(-c2ccc([N+](=O)[O-])s2)s1` (stereo not drawn), the outcome was inactive, the Inhibition is listed as 82% and the MIC is over 6.25 µg/mL.

With `CCOC(=O)C(C)Sc1nnc(-c2ncc([N+](=O)[O-])n2C)s1` (stereo not drawn), the result was Active, the Inhibition was 90% and 6.25 µg/mL (≈ 18.2 µM) was the least that counted as inhibitory (MIC).

`CCOC(=O)C(C)S(=O)(=O)c1nnc(-c2ccc([N+](=O)[O-])o2)s1` (stereo not drawn): the outcome was inactive, the Inhibition stood at 78% and the MIC was over 6.25 µg/mL.

`CCOC(=O)C(C)S(=O)(=O)c1nnc(-c2ncc([N+](=O)[O-])n2C)s1` (stereo not drawn): the outcome was Active, the Inhibition was determined as 100% and the MIC was 3.12 µg/mL (≈ 8.31 µM).

For `CCCOC(=O)CCSc1nnc(-c2ccc([N+](=O)[O-])s2)s1`, the result was Active, the Inhibition is given as 98% and the MIC turned out to be 1.56 µg/mL (≈ 4.34 µM).

On to `O=C(O)CCSc1nnc(-c2ccc([N+](=O)[O-])s2)s1`, for which the result was inactive, the Inhibition is listed as 0% and the MIC is over 6.25 µg/mL.

Take `CCCCOC(=O)CCSc1nnc(-c2ccc([N+](=O)[O-])o2)s1`: the outcome was inactive, the Inhibition came to 0% and the MIC is over 6.25 µg/mL.

As for `CCOC(=O)C(C)Sc1nnc(-c2ccc([N+](=O)[O-])s2)s1` (stereo not drawn), the outcome was Active, the Inhibition turned out to be 92% and the lowest concentration to inhibit growth (MIC) was 6.25 µg/mL (≈ 18.1 µM).

Take `CCOC(=O)CCSc1nnc(-c2ccc([N+](=O)[O-])o2)s1`: the outcome was inactive, the Inhibition is on record as 14% and the MIC is over 6.25 µg/mL.

`CCOC(=O)C(C)[S+]([O-])c1nnc(-c2ncc([N+](=O)[O-])n2C)s1` (stereo not drawn): the result was inactive, the Inhibition is 11% and the MIC was over 6.25 µg/mL.

`CCOC(=O)C(C)[S+]([O-])c1nnc(-c2ccc([N+](=O)[O-])o2)s1` (stereo not drawn): the result was inactive, the Inhibition turned out to be 6% and the MIC is over 6.25 µg/mL.

On to `CCOC(=O)CCSc1nnc(-c2ccc([N+](=O)[O-])s2)s1`, for which the result was inactive, the Inhibition is 26% and the MIC was over 6.25 µg/mL.

`CCCOC(=O)CCSc1nnc(-c2ccc([N+](=O)[O-])o2)s1`: the result was inactive, the Inhibition is 0% and the MIC is over 6.25 µg/mL.

For the compound `CCOC(=O)C(C)[S+]([O-])c1nnc(-c2ccc([N+](=O)[O-])s2)s1` (stereo not drawn), the result was inactive, the Inhibition turned out to be 12% and the minimum inhibitory concentration (MIC) was over 6.25 µg/mL.

Take `CCOC(=O)C(C)Sc1nnc(-c2ccc([N+](=O)[O-])o2)s1` (stereo not drawn): the outcome was Active, the Inhibition was determined as 98% and 6.25 µg/mL (≈ 19 µM) was the least that counted as inhibitory (MIC).

In the case of `CCCCOC(=O)CCSc1nnc(-c2ccc([N+](=O)[O-])s2)s1`, the result was Active, the Inhibition is listed as 98% and the MIC stood at 6.25 µg/mL (≈ 16.7 µM).

`CO[C@H]1/C=C/O[C@@]2(C)Oc3c(C)c(O)c4c(O)c(c(/C=N/N5CCN(C)CC5)c(O)c4c3C2=O)NC(=O)/C(C)=C\C=C\[C@H](C)[C@H](O)[C@@H](C)[C@@H](O)[C@@H](C)[C@H](OC(C)=O)[C@@H]1C` [RIFAMPIN] gave a minimum inhibitory concentration (MIC) of 0.5 µg/mL (≈ 0.608 µM).

Turning to `COC(=O)CCSc1nnc(-c2ccc([N+](=O)[O-])s2)s1`, the outcome was inactive, the Inhibition stood at 76% and the MIC is over 6.25 µg/mL.

The Inhibition is the share of the control response that was lost under treatment. By MIC is commonly meant the least concentration at which growth counts as inhibited.
